# According to US20240108602A1, “TREATMENT OF MENTAL DISORDERS” (GH Research Ireland Limited, priority 2022, published 2024):
# How the values were obtained:
# [1] = test system: Salmonella typhimurium (TA98, TA100, TA1535 and TA1537); experiment: Bacterial mutation test, Salmonella typhimurium; format: cell-based
# From the text: (§1) These conditions included treatments at concentrations up to […] (the maximum recommended concentration according to current regulatory guidelines), in the absence and in the presence of a rat liver metabolic activation system (S-9).
# [2] = test system: Escherichia coli (WP2 uvrA pKM101); experiment: Bacterial mutation test, Escherichia coli; format: cell-based; settings: up to 5000 pg/plate, with and without S-9
# From the text: as §1
# [3] = test system: human plasma proteins; experiment: 5-MeO-DMT binding to human plasma proteins, high throughput dialysis; format: in vitro ADME; settings: 4-hour dialysis
# Experimental: Following evaluation of the equilibration data, plasma protein binding was investigated at nominal concentrations of 0.1, 1 and 10 μM using a 4-hour dialysis time. […]
# [4] = 5-MeO-DMT, 5-MIAA and bufotenine in urine, serum and breastmilk of a lactating PPD patient, LC-MS/MS
# Experimental: The second patients was lactating, and, per the clinical trial protocol, breastmilk samples were collected pre-dosing and at multiple timepoints after administration of the last dose. […] Similar analyses were carried out on patient serum and urine samples.
# [5] = 1.0 hrs after last dose (6 mg then 12 mg 5-MeO-DMT)
smiles,measurement,setting,value
COc1ccc2[nH]cc(CCN(C)C)c2c1 [5-MeO-DMT],in vitro genotoxicity assessment,[1],negative
same,induction of mutation,"[1]; up to 5000 μg/plate, with and without S-9",did not induce mutation
same,induction of mutation,[2],did not induce mutation
same,Free Fraction in human plasma,[3]; 0.1 μM,78.7%
same,Free Fraction in human plasma,[3]; 1 μM,77.3%
same,Free Fraction in human plasma,[3]; 10 μM,87.0%
same,Breastmilk concentration,[4]; [5],2167.0 pg/mL
same,Serum concentration,[4]; [5],0.1329 ng/mL
same,Breastmilk concentration,[4]; 2.5 hrs after last dose,560.6 pg/mL
same,Serum concentration,[4]; 2.5 hrs after last dose,BLQ (BLQ: Below limit of quantification. The lower limit of quantification is 25 pg/ml for both 5-MeO-DMT and 5-MIAA in both serum and breastmilk; it is 25 pg/ml in urine for 5-MeO-DMT and 250 pg/ml for 5-MIAA in urine.)
same,Urine concentration,[4]; 2.5 hrs after last dose,566.7 pg/mL
same,Breastmilk concentration,[4]; 8.5 hrs after last dose,42.1 pg/mL
same,Urine concentration,[4]; 8.5 hrs after last dose,BLQ (BLQ: Below limit of quantification. The lower limit of quantification is 25 pg/ml for both 5-MeO-DMT and 5-MIAA in both serum and breastmilk; it is 25 pg/ml in urine for 5-MeO-DMT and 250 pg/ml for 5-MIAA in urine.)
same,Breastmilk concentration,[4]; 24.0 hrs after last dose,did not detect any 5-MeO-DMT and BLG
same,Serum concentration,[4]; 24.0 hrs after last dose,BLQ (BLQ: Below limit of quantification. The lower limit of quantification is 25 pg/ml for both 5-MeO-DMT and 5-MIAA in both serum and breastmilk; it is 25 pg/ml in urine for 5-MeO-DMT and 250 pg/ml for 5-MIAA in urine.)
same,Urine concentration,[4]; 24.0 hrs after last dose,BLQ (BLQ: Below limit of quantification. The lower limit of quantification is 25 pg/ml for both 5-MeO-DMT and 5-MIAA in both serum and breastmilk; it is 25 pg/ml in urine for 5-MeO-DMT and 250 pg/ml for 5-MIAA in urine.)
same,Breastmilk concentration,[4]; 120.0 hrs after last dose,BLQ (BLQ: Below limit of quantification. The lower limit of quantification is 25 pg/ml for both 5-MeO-DMT and 5-MIAA in both serum and breastmilk; it is 25 pg/ml in urine for 5-MeO-DMT and 250 pg/ml for 5-MIAA in urine.)
same,Serum concentration,[4]; 120.0 hrs after last dose,BLQ (BLQ: Below limit of quantification. The lower limit of quantification is 25 pg/ml for both 5-MeO-DMT and 5-MIAA in both serum and breastmilk; it is 25 pg/ml in urine for 5-MeO-DMT and 250 pg/ml for 5-MIAA in urine.)
same,Urine concentration,[4]; 120.0 hrs after last dose,BLQ (BLQ: Below limit of quantification. The lower limit of quantification is 25 pg/ml for both 5-MeO-DMT and 5-MIAA in both serum and breastmilk; it is 25 pg/ml in urine for 5-MeO-DMT and 250 pg/ml for 5-MIAA in urine.)
same,Breastmilk concentration,[4]; −24.0 hrs (pre-dosing),BLQ (BLQ: Below limit of quantification. The lower limit of quantification is 25 pg/ml for both 5-MeO-DMT and 5-MIAA in both serum and breastmilk; it is 25 pg/ml in urine for 5-MeO-DMT and 250 pg/ml for 5-MIAA in urine.)
same,Serum concentration,[4]; −24.0 hrs (pre-dosing),BLQ (BLQ: Below limit of quantification. The lower limit of quantification is 25 pg/ml for both 5-MeO-DMT and 5-MIAA in both serum and breastmilk; it is 25 pg/ml in urine for 5-MeO-DMT and 250 pg/ml for 5-MIAA in urine.)
same,Urine concentration,[4]; −24.0 hrs (pre-dosing),BLQ (BLQ: Below limit of quantification. The lower limit of quantification is 25 pg/ml for both 5-MeO-DMT and 5-MIAA in both serum and breastmilk; it is 25 pg/ml in urine for 5-MeO-DMT and 250 pg/ml for 5-MIAA in urine.)
